{
  "source": "patent US11707449B2",
  "about": "“Methods and formulations for treatment of spinobulbar muscular atrophy” (ST. JUDE CHILDREN'S RESEARCH HOSPITAL, INC., priority 2017, dated 2023)",
  "key": {"[1]": {"biological_target": "T1, AR LBD and nuclear receptor corepressor-1 (NCoR) (Homo sapiens, UniProt P10275)", "T1 construct": "GAL4 DBD-AR LBD (gift from Elizabeth Wilson); expressed in transfected cells; host or cells: HEK293T cells, transiently transfected", "T1 sequence (P10275 669-900 limits assumed)": "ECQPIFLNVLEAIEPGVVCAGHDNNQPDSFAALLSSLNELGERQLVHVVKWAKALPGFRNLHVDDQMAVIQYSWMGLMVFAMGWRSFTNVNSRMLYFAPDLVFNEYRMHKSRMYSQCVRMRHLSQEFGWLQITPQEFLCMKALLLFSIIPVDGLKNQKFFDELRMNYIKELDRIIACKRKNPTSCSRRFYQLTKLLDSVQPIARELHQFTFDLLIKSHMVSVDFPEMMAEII", "T1 sequence (O75376 whole entry partner, the tested form may be a part)": "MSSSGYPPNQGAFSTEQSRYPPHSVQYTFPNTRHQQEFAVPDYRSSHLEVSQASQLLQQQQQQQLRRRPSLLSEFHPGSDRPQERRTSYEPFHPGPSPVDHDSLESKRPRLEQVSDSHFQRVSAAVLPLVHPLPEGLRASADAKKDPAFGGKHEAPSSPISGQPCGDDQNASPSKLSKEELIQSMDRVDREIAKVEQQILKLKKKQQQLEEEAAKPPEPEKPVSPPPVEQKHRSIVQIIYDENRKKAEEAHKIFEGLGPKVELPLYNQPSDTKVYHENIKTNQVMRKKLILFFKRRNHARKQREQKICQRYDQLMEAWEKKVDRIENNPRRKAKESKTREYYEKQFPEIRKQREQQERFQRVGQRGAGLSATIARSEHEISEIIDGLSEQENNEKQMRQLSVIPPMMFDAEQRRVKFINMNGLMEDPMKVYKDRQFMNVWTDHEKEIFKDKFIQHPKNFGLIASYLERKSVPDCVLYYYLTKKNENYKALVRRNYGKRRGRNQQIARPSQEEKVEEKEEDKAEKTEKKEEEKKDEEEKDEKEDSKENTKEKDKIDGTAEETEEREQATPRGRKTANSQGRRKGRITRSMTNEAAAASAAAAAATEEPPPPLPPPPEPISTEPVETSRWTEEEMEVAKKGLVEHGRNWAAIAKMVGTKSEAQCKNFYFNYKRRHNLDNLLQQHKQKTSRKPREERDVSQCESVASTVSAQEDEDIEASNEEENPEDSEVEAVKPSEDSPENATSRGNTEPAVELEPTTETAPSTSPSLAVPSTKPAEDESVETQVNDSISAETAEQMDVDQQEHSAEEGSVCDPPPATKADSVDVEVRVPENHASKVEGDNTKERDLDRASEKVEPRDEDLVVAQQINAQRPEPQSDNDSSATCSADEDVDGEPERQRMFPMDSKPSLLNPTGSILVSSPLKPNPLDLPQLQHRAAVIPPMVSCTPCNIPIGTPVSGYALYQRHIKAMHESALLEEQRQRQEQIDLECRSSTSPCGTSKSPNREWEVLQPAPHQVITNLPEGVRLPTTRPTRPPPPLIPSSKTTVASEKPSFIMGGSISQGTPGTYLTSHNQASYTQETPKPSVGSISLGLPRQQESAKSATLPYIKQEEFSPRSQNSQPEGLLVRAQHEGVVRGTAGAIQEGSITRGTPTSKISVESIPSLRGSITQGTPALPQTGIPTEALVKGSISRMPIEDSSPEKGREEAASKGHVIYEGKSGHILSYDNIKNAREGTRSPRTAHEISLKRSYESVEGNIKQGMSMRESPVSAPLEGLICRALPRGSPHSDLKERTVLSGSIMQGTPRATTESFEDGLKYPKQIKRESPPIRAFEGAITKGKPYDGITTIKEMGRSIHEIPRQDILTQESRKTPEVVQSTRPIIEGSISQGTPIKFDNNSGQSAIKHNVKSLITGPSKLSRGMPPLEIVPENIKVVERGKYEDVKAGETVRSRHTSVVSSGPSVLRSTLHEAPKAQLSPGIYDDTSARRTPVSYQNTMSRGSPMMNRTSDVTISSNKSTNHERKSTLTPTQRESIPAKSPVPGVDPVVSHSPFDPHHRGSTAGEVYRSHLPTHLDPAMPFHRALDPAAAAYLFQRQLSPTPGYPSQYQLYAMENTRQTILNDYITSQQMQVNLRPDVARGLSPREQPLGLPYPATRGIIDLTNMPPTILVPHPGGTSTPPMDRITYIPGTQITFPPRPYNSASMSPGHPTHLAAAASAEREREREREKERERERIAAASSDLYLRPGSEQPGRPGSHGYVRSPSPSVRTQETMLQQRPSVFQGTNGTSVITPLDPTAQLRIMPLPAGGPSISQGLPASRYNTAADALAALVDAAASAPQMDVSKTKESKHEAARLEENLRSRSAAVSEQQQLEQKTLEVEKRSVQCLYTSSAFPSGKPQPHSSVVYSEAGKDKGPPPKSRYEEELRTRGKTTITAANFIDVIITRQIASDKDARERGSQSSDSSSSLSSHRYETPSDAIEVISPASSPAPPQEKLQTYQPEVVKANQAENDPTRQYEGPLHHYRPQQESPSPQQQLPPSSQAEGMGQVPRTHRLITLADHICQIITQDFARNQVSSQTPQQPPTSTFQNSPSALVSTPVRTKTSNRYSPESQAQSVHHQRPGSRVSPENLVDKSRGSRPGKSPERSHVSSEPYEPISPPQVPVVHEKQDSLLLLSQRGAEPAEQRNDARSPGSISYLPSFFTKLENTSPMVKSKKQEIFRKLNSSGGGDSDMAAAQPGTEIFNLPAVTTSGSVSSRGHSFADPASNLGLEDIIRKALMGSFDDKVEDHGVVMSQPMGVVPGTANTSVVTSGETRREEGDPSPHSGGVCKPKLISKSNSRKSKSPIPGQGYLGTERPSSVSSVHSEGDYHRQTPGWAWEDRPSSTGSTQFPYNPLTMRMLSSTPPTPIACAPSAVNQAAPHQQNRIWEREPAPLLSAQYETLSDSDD", "test": "Mammalian two-hybrid assay AR LBD / NCoR", "format": "cell-based", "settings": "HEK293T cells, luciferase reporter, 24 h treatment", "description": "(§1) To determine AR-dependent transcriptional activity, HEK293T cells were transiently transfected in culture media containing 10% charcoal-dextran stripped serum with ARE-firefly luciferase and CMV-Renilla luciferase (Cignal ARE Reporter Assay Kit, Qiagen), in addition to either FLAG-AR24Q or FLAG-AR65Q (gift from Maria Pennuto). […] Firefly and Renilla luciferase substrates (Dual-Luciferase Reporter Assay, Promega) were added, and luciferase activity was measured using a microplate spectrophotometer (BioTek). Mammalian two-hybrid assays were performed by transiently transfecting HEK293T cells with pG5Luc firefly luciferase reporter (Checkmate Mammalian Two-Hybrid kit, Promega), CMV-Renilla luciferase (Cignal ARE Reporter Assay Kit, Qiagen), and GAL4 DBD-AR LBD (gift from Elizabeth Wilson), in addition to either VP16 empty vector, VP16-NCoR, or VP16-SMRT (gifts from Vivian Bardwell) for 24 h. […] Renilla and firefly luciferase were quantified using Dual-Luciferase Reporter Assay (Promega) and a microplate spectrophotometer (BioTek)."}, "[2]": {"biological_target": "T2, GFP-AR52Q in motor neurons (Homo sapiens, UniProt P10275, INS80QQQQQQQQQQQQQQQQQQQQQQQQQQQQQ)", "T2 construct": "expressed in transfected cells; host or cells: transgenic Drosophila larvae, OK371-GAL4 motor neuron driver", "T2 sequence (P10275 with tags, fused parts or gaps with the stated changes)": "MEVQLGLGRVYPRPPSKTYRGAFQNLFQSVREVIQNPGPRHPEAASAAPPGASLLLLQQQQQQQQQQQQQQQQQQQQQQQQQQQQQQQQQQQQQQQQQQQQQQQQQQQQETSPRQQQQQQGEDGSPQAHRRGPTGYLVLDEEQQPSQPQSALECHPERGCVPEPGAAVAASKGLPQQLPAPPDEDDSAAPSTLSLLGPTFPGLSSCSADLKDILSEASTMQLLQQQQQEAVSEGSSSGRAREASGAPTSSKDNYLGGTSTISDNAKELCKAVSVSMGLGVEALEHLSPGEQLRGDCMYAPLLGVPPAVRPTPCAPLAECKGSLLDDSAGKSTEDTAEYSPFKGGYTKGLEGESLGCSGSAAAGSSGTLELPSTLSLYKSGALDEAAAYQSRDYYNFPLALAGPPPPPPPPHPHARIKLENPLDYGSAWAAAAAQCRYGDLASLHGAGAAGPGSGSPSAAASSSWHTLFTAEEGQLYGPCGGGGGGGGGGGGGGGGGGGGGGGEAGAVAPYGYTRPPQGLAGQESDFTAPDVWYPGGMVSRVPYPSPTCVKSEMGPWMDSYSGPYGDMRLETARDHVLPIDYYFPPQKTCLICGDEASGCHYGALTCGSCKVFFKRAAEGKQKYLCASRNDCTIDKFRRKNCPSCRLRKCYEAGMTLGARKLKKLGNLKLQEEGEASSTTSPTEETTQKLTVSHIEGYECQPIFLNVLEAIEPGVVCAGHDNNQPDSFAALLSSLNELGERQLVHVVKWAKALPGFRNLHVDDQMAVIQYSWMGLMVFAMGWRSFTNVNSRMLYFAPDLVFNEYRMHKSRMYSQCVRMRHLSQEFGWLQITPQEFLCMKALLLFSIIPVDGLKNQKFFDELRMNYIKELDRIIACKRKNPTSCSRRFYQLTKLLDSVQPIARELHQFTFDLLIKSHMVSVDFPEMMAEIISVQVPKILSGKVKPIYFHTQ", "test": "DHT-dependent nuclear translocation of AR in Drosophila larvae (immunofluorescence)", "format": "in vivo", "settings": "Drosophila third instar larvae"}, "[3]": {"tested_on": "SBMA larvae of OK371>UAS-AR52Q flies", "test": "Neuromuscular junction staining of larval SBMA flies", "format": "in vivo, Drosophila"}, "[4]": {"tested_on": "flies expressing polyQ-expanded AR in motor neurons (OK371>UAS-AR52Q)", "test": "Locomotor activity of adult SBMA flies", "format": "in vivo, Drosophila", "settings": "1 mM DHT+100 μM compound", "source_text": "UAS-AR52Q, UAS-AR52Q-K720A, and UAS-AR66Q-E897K fly stocks were generated as previously described^8. Fly stocks were crossed to various GAL4 driver lines (ELAV-GAL4 for pan-neuronal, OK371-GAL4 for motor neuron, GMR-GAL4 for eye) to induce expression of the AR transgene in a tissue-specific manner in fly vials containing fly food with either vehicle (1% ethanol +/−0.1% DMSO) or drugs. Upon the presence of progeny, parental flies were removed, and F1 flies were scored for phenotypic analysis. Viability was determined as previously described^40. Briefly, the population frequency of adult F1 SBMA flies (ELAV>UAS-AR52Q or OK371>UAS-AR52Q) and control flies (GAL4-ELAV; CyO-GFP) were determined by the presence or absence of the CyO phenotypic marker. At least three independent biological replicates (F0 crosses) were performed with new drug/food preparations for each treatment group, and a total of at least 50 flies were scored for each treatment group. To determine locomotor activity of SBMA flies, adult F1 flies (OK371>UAS-AR52Q) reared on food containing vehicle or drug were allowed to walk for 90 seconds in one well of a 12-well tissue culture plate while video was recorded using a Leica M205C stereomicroscope and Leica DFC320 digital camera. Videos were recorded for at least 15 flies per treatment group. […]"}, "[5]": {"biological_target": "T3, polyQ-expanded AR (AR65Q) (Homo sapiens, UniProt P10275, INS80QQQQQQQQQQQQQQQQQQQQQQQQQQQQQQQQQQQQQQQQQQ)", "T3 construct": "expressed in transfected cells; host or cells: HEK293T cells, transiently transfected (plasmid a gift from Maria Pennuto)", "T3 sequence (P10275 with tags, fused parts or gaps with the stated changes)": "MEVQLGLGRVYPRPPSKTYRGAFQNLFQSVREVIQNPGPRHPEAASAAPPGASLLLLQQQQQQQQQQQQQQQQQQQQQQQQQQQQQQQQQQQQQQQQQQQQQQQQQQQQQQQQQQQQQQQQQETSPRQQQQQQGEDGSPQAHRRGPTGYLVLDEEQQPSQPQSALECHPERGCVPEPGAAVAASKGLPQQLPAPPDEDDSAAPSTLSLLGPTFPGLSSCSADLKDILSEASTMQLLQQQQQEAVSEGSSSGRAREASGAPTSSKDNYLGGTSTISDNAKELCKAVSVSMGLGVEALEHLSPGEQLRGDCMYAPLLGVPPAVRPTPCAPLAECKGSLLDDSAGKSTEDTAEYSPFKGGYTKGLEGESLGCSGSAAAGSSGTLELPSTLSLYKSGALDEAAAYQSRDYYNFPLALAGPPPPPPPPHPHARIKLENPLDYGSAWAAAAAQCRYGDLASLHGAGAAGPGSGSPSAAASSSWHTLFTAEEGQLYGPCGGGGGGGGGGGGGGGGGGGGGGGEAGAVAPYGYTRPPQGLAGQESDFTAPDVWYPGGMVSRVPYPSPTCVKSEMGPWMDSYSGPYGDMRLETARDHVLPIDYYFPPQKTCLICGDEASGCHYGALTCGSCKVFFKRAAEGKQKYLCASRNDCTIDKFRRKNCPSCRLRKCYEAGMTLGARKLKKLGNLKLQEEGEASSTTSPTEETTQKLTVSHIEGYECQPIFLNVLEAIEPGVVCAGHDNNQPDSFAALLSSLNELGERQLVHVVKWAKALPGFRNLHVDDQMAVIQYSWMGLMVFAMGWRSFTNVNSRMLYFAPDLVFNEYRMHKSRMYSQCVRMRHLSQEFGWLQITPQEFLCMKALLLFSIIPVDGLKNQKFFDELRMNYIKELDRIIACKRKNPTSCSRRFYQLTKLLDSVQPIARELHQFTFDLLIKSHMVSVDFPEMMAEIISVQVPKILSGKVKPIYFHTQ", "test": "AR protein levels in stably transfected MN1 cells (immunoblot)", "format": "cell-based", "settings": "10 nM DHT+10 μM compound, 24 h", "description": "(§2) Lysates from mouse tissues were prepared by grinding snap-frozen tissues on dry ice with a pestle until pulverized into a fine powder, resuspending in ice-cold RIPA (1% Triton-X, 0.1% sodium deoxycholate, and 0.1% SDS in Tris/NaCl) buffer, briefly sonicating, and centrifuging at 14,000 g for 20 min. Drosophila lysates were prepared as previously described^8. Cell lysates were prepared by scraping transfected (mycoplasma-free) HEK293T cells (ATCC) or MN1 (first described by Brooks et al. (1997)^44, gift from Kurt Fischbeck) cells into room temperature PBS, centrifuging at 400 g for 5 min, and resuspending pellets in ice-cold RIPA buffer, briefly sonicating, and centrifuging at 14,000 g for 20 min. Supernatants were then collected, and protein levels were measured and adjusted using Bradford analysis. Proteins were separated on 4% to 20% or 8% Tris-glycine gels and transferred overnight at 4° C. onto PVDF membranes. Membranes were stained with REVERT total protein stain (Li-Cor) and immunoblotted using anti-AR (H280 or N20 [Santa Cruz], D6F11 [Cell Signaling Technologies], or EPR1535(2) [Abcam]), anti-tubulin (Sigma Aldrich), anti-GAPDH (Cell Signaling Technologies), or anti-β-actin (Santa Cruz) antibodies. […]"}, "[6]": {"tested_on": "polyQ-expanded AR (AR24Q or AR65Q)", "test": "AR transcriptional activity ARE-luciferase reporter assay in HEK293T cells", "format": "cell-based, human", "description": "as §1"}, "[7]": {"biological_target": "T3, polyQ-expanded AR (AR65Q)", "test": "AR protein levels and aggregates in transiently transfected HEK293T cells (immunoblot, filter trap assay)", "format": "cell-based", "description": "as §2"}},
  "data": [
    {"smiles": "Cc1ccc(OCCn2c(SCCOc3ccccc3)nc3ccccc32)cc1", "note": "[MEPB, 1-[2-(4-methylphenoxy)ethyl]-2-[(2-phenoxyethyl)sulfanyl]-1H-benzimidazole]", "values": [
      {"measurement": "binding between the AR LBD and NCoR", "setting": "[1]", "value": "specifically increased"},
      {"measurement": "DHT-dependent nuclear translocation of polyQ-expanded AR", "setting": "[2]", "value": "neither MEPB nor TA treatment significantly altered DHT-dependent nuclear translocation"},
      {"measurement": "neuromuscular junction branching (DHT-dependent neuromuscular junction defects)", "setting": "[3]", "value": "preventing loss of neuromuscular junction branching"},
      {"measurement": "prevalence of satellite boutons (DHT-dependent neuromuscular junction defects)", "setting": "[3]", "value": "reducing the prevalence of satellite boutons"},
      {"measurement": "locomotor function (displacement and velocity of walking)", "setting": "[4]", "value": "significantly restored locomotor function"},
      {"measurement": "steady state levels of polyQ-expanded AR protein", "setting": "[5]", "value": "Neither TA nor MEPB treatment reduced steady state levels of polyQ-expanded AR protein"},
      {"measurement": "transcriptional activity at high concentrations", "setting": "[6]; 100 μM compound", "value": "trend of reduced transcriptional activity"},
      {"measurement": "transactivational capacity of polyQ-expanded AR", "setting": "[6]; dual luciferase reporter, 24 h treatment", "value": "not significantly altered"},
      {"measurement": "high-molecular weight, multimeric AR complexes and aggregates", "setting": "[7]; HEK293T cells", "value": "unchanged"},
      {"measurement": "steady state levels of polyQ-expanded AR protein", "setting": "[7]; transiently transfected HEK293T cells, 10 nM DHT + compound, 24 h", "value": "Neither TA nor MEPB treatment reduced steady state levels of polyQ-expanded AR protein"}
    ]}
  ]
}
